Measured values as given in ChEMBL document CHEMBL1932917, “4,5-dihydropyridazin-3-one derivatives as histamine H₃ receptor inverse agonists” (Bioorg Med Chem Lett, 2012).

Experiments:
Histamine H3 receptor [1] = biological target: T1, Histamine H3 receptor (Homo sapiens, UniProt Q9Y5N1); test: Antagonist activity at human histamine H3 receptor by [35S]GTPgammaS binding assay; assay type: functional
Histamine H3 receptor [2] = biological target: T1, Histamine H3 receptor; test: Displacement of [3H]NAMH from human histamine H3 receptor expressed in CHO cells; assay type: cell-based
Histamine H3 receptor [3] = biological target: Histamine H3 receptor (Rattus norvegicus, UniProt Q9QYN8); test: Displacement of [3H]NAMH from rat histamine H3 receptor expressed in CHO cells; assay type: cell-based
Histamine H3 receptor (Rattus norvegicus, UniProt Q9QYN8), sequence (Q9QYN8 whole entry): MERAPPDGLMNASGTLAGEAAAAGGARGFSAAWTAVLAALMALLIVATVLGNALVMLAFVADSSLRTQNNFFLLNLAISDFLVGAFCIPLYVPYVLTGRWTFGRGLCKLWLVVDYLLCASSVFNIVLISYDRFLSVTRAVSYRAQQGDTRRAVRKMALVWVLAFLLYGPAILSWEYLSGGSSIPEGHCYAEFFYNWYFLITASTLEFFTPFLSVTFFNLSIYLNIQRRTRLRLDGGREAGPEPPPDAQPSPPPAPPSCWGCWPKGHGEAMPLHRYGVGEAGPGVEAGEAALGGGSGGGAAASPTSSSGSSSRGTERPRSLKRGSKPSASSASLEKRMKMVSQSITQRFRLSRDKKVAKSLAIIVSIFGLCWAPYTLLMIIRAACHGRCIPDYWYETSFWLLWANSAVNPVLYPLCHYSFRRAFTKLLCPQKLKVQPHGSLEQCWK

[4] = Ratio of drug level in brain to plasma in rat at 10 mg/kg, ip after 6 hrs; assay type: ADME, organism-based; parameters: dose 10 mg/kg, route intraperitoneal; settings: brain/plasma, read-out: BPR
Histamine H3 receptor [5] = biological target: T1, Histamine H3 receptor; test: Inverse agonist activity at human histamine H3 receptor by [35S]GTPgammaS binding assay; assay type: functional
[6] = Half life in mouse liver microsomes; assay type: ADME, Microsome
[7] = Half life in rat liver microsomes; assay type: ADME, Microsome
[8] = Half life in dog liver microsomes; assay type: ADME, Canis lupus familiaris, Microsome
[9] = Half life in monkey liver microsomes; assay type: ADME, Macaca mulatta, Microsome; settings: rhesus monkey
[10] = Half life in human liver microsomes; assay type: ADME, Microsome
Cytochrome P450 1A2 = biological target: T2, Cytochrome P450 1A2 (Homo sapiens, UniProt P05177); test: Inhibition of CYP1A2; assay type: ADME
T2 sequence (P05177 whole entry): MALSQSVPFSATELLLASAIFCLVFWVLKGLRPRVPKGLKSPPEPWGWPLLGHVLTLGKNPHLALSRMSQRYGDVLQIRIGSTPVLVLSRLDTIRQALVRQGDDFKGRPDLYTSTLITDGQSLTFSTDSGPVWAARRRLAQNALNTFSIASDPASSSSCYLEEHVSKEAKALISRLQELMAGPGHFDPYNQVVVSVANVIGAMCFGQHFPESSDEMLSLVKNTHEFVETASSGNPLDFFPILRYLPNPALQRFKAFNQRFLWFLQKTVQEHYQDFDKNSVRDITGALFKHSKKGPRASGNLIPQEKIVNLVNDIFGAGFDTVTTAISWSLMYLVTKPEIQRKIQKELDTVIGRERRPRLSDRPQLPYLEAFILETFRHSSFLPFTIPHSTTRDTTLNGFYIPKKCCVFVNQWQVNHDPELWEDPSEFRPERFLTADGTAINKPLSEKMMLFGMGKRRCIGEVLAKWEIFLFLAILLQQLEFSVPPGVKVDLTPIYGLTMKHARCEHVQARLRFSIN

Cytochrome P450 2C9 = Cytochrome P450 2C9 (Homo sapiens, UniProt P11712); test: Inhibition of CYP2C9; assay type: ADME
Cytochrome P450 2C9, sequence (P11712 whole entry): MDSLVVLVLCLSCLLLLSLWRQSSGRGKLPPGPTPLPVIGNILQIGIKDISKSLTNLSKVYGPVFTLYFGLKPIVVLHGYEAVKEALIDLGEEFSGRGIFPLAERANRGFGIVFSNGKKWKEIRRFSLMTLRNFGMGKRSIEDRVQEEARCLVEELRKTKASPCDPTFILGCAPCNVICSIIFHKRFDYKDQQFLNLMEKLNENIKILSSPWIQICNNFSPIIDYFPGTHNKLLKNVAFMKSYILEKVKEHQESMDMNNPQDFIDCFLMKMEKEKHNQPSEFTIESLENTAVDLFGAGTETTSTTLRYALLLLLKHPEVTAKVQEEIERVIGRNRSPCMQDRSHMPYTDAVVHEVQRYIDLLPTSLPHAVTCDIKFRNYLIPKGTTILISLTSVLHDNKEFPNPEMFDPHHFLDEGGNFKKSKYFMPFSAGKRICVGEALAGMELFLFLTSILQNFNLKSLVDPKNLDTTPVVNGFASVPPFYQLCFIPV

Cytochrome P450 2C19 = Cytochrome P450 2C19 (Homo sapiens, UniProt P33261); test: Inhibition of CYP2C19; assay type: ADME
Cytochrome P450 2C19, sequence (P33261 whole entry): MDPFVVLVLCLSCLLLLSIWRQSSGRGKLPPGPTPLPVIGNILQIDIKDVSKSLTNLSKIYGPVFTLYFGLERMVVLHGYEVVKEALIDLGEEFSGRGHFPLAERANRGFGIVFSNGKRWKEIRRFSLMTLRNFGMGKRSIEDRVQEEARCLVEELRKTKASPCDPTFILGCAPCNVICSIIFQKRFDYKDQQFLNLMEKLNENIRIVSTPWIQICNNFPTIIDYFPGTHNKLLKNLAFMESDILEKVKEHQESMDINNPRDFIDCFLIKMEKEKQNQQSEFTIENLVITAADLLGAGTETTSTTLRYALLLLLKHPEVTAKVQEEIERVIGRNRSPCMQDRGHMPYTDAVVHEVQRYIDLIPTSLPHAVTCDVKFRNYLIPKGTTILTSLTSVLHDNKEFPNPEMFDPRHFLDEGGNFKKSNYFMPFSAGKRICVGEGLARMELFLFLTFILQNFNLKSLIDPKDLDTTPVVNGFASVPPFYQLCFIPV

Cytochrome P450 2D6 = Cytochrome P450 2D6 (Homo sapiens, UniProt P10635); test: Inhibition of CYP2D6; assay type: ADME
Cytochrome P450 2D6, sequence (P10635 whole entry): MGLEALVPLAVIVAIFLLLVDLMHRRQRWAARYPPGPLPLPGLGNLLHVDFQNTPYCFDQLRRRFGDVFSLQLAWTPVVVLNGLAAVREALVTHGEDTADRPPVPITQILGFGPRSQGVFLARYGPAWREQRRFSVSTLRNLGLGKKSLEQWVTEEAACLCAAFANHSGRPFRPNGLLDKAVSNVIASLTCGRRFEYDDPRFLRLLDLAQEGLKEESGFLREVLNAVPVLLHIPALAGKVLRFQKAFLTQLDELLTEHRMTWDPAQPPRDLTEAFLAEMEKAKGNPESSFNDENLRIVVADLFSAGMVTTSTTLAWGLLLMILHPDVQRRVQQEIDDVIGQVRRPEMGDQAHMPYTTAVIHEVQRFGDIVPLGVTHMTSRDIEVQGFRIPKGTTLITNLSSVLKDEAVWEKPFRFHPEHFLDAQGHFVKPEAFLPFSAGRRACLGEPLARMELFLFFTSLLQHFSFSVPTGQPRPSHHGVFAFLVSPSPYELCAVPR

Cytochrome P450 3A4 = Cytochrome P450 3A4 (Homo sapiens, UniProt P08684); test: Inhibition of CYP3A4; assay type: ADME
Cytochrome P450 3A4, sequence (P08684 whole entry): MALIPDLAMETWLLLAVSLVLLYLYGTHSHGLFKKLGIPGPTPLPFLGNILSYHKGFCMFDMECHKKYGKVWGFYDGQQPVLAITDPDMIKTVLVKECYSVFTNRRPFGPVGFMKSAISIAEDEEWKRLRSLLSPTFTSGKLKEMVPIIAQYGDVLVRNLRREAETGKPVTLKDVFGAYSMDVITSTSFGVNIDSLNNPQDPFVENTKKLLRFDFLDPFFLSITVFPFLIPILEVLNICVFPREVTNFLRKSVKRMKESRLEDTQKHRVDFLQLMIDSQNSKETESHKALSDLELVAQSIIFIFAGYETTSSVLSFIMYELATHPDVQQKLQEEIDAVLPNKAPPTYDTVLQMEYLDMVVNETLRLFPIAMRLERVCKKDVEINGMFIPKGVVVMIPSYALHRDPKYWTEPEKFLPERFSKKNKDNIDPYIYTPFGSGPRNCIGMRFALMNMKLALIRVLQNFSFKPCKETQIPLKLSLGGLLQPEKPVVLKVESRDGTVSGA

[11] = Half life in rat at 1 mg/kg, iv; assay type: ADME, organism-based; parameters: dose 1 mg/kg, route intravenous; settings: in vivo
[12] = Volume of distribution in rat at 1 mg/kg, iv; assay type: ADME, organism-based; parameters: dose 1 mg/kg, route intravenous; settings: in vivo
[13] = AUC in rat at 5 mg/kg, po; assay type: ADME, organism-based, Plasma; parameters: dose 5 mg/kg, route oral; settings: plasma
[14] = Cmax in rat at 5 mg/kg, po; assay type: ADME, organism-based; parameters: dose 5 mg/kg, route oral; settings: in vivo
[15] = Oral bioavailability in rat at 5 mg/kg; assay type: ADME, organism-based; settings: in vivo
Rattus norvegicus = test: Inhibition of RAMH-induced dipsogenia in po dosed rat; assay type: functional
[16] = Apparent permeability of the compound in human Caco2 cells; assay type: ADME, cell-based; settings: Caco-2
[17] = Solubility of the compound in water at pH 2; assay type: physicochemical
[18] = Solubility of the compound in water at pH 7.4; assay type: physicochemical
[19] = biological target: T3, Muscarinic acetylcholine receptor M2 (Homo sapiens) (UniProt P08172); test: Inhibition of muscarinic M2 receptor at 10 uM
T3 sequence (whole entry): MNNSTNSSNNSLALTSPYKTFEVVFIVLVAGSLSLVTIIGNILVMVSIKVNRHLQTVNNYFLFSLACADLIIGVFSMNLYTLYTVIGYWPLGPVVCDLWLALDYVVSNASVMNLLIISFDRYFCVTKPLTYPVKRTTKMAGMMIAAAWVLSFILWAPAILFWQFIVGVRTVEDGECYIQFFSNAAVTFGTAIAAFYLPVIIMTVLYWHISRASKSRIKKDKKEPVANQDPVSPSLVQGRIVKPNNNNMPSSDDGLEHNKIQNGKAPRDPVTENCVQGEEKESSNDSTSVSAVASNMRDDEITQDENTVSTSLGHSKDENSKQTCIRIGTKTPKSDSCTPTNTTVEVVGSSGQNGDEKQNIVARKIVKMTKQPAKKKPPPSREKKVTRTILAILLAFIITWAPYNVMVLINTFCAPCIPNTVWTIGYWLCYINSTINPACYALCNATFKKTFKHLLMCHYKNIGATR

[20] = Clearance in rat at 1 mg/kg, iv; assay type: ADME, organism-based; parameters: dose 1 mg/kg, route intravenous; settings: in vivo
[21] = Drug uptake in rat brain at 5 mg/kg, po after 6 hrs; assay type: ADME, organism-based; parameters: dose 5 mg/kg, route oral; settings: read-out: Drug uptake

T1 sequence (Q9Y5N1 whole entry): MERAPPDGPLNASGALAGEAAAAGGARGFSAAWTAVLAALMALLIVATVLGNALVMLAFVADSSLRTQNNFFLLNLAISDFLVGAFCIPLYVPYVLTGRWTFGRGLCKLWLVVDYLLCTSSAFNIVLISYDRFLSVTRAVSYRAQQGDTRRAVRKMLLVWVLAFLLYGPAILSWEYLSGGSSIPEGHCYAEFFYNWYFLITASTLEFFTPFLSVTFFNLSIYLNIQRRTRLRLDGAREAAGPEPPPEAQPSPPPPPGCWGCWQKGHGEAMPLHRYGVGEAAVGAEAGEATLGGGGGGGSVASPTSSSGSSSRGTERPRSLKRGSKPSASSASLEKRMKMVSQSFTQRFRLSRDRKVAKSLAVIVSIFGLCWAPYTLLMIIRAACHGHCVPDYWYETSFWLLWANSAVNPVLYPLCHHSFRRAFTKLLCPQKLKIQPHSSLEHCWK

## CC1CC(=O)NN=C1c1ccc(OCCCN2CCC[C@H]2C)cc1 (stereo in doubt; 19a) [listing 1 of 2 here]
Histamine H3 receptor [1]
  Kb: 0.68 nM

## C[C@@H]1CCCN1CCCOc1ccc(C2=NN(Cc3ccccc3)C(=O)CC2)cc1
Histamine H3 receptor [2]
  Ki: 2 nM
Histamine H3 receptor [3]
  Ki: 25 nM

## C[C@@H]1CCCN1CCCOc1ccc(C2=NN(c3ccccc3)C(=O)CC2)cc1
Histamine H3 receptor [2]
  Ki: 10 nM
Histamine H3 receptor [3]
  Ki: 16 nM

## CC1CC(=O)NN=C1c1ccc(OCCCN2CCC[C@H]2C)cc1 (mixture of isomers)
Histamine H3 receptor [2]
  Ki: 5.6 nM
Histamine H3 receptor [3]
  Ki: 18 nM

## C[C@@H]1CCCN1CCCOc1ccc(C2=NN(CC(F)(F)F)C(=O)CC2)cc1
Histamine H3 receptor [2]
  Ki: 5 nM
Histamine H3 receptor [3]
  Ki: 10 nM

## CC1CC(=O)NN=C1c1ccc(OCCCN2CCCC2)cc1 (racemic)
Histamine H3 receptor [2]
  Ki: 83 nM
Histamine H3 receptor [3]
  Ki: 85 nM

## O=C1CCC(c2ccc(OCCCN3CCCC3)cc2)=NN1
Histamine H3 receptor [2]
  Ki: 74 nM
Histamine H3 receptor [3]
  Ki: 256 nM

## CC1CC(=O)NN=C1c1ccc(OCCCN2CCC[C@H]2C)cc1 (stereo in doubt; 19a) [listing 2 of 2 here]
[4]
  Kp at 6 h: 1.8
Histamine H3 receptor [2]
  Ki: 6.8 nM
Histamine H3 receptor [3]
  Ki: 29 nM
Histamine H3 receptor [5]
  EC50: 1.3 nM
[6]
  half-life: > 40 min
[7]
  half-life: > 40 min
[8]
  half-life: > 40 min
[9]
  half-life: > 40 min
[10]
  half-life: > 40 min
Cytochrome P450 1A2
  IC50: > 30 µM
Cytochrome P450 2C9
  IC50: > 30 µM
Cytochrome P450 2C19
  IC50: > 30 µM
Cytochrome P450 2D6
  IC50: > 30 µM
Cytochrome P450 3A4
  IC50: > 30 µM
[11]
  half-life: 108 min
[12]
  Vd: 3.5 L/kg
[13]
  AUC: 1360 ng·h/mL
[14]
  Cmax: 301 ng/mL
[15]
  bioavailability: 40%

## C[C@@H]1CCCN1CCCOc1ccc(C2=NN(c3ccccn3)C(=O)CC2)cc1
Histamine H3 receptor [2]
  Ki: 12 nM
Histamine H3 receptor [3]
  Ki: 42 nM

## C[C@@H]1CCCN1CCCOc1ccc(C2=NNC(=O)C(c3ccccn3)C2)cc1 (mixture of isomers)
Histamine H3 receptor [2]
  Ki: 8.8 nM
Histamine H3 receptor [3]
  Ki: 42 nM

## C[C@@H]1CCCN1CCCOc1ccc(C2=NNC(=O)CC2)cc1
[4]
  Kp at 6 h: 3.1
Rattus norvegicus
  ED50: 0.06 mg/kg
  inhibition: Dose-dependent effect
Histamine H3 receptor [2]
  Ki: 3.2 nM
Histamine H3 receptor [3]
  Ki: 8.8 nM
Histamine H3 receptor [5]
  EC50: 0.7 nM
[16]
  Papp: 11.4 ×10⁻⁶ cm/s
[17]
  solubility: > 2000 µg/mL
[18]
  solubility: > 2000 µg/mL
[6]
  half-life: > 40 min
[7]
  half-life: > 40 min
[8]
  half-life: > 40 min
[9]
  half-life: > 40 min
[10]
  half-life: > 40 min
Cytochrome P450 1A2
  IC50: > 30 µM
Cytochrome P450 2C9
  IC50: > 30 µM
Cytochrome P450 2C19
  IC50: > 30 µM
Cytochrome P450 2D6
  IC50: > 11 µM
Cytochrome P450 3A4
  IC50: > 11 µM
[19]
  inhibition: 60%
[11]
  half-life: 66 min
[12]
  Vd: 0.8 L/kg
[20]
  clearance: 8.5 mL/min/kg
[13]
  AUC: 1830 ng·h/mL
[14]
  Cmax: 376 ng/mL
[15]
  bioavailability: 19%
[21]
  concentration at 6 h: 2200 nM
